Assay in all cases: relative viability (nuclei count vs DMSO), 5 days (fraction); higher = more cells survive
Compound in one assay: CC1(C)CCC(CN2CCN(c3ccc(C(=O)NS(=O)(=O)c4ccc(NCC5CCOCC5)c([N+](=O)[O-])c4)c(Oc4cnc5[nH]ccc5c4)c3)CC2)=C(c2ccc(Cl)cc2)C1 [Venetoclax]
The method in brief: (§1)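 Only plates meeting two conditions passed: control CV below 25% and at least one doubling. Lung cancer cell lines, kept overnight at 37 °C in 1536-well plates, were pinned with five library-drug doses (not always all listed) √10 apart on vehicle-anchored plates and grown 5 days without medium change. A one-step fix, permeabilisation and Hoechst stain preceded 4× imaging and MetaXpress nuclear counting. Viability equals treated-well nuclei divided by vehicle-well nuclei, as the median over plates.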

Compound in a further assay: Cn1cnc2c(F)c(Nc3ccc(Br)cc3Cl)c(C(=O)NOCCO)cc21 [Selumetinib]
The method in brief:
as §1

Compound in the assay “Venetoclax + Trametinib”: CC1(C)CCC(CN2CCN(c3ccc(C(=O)NS(=O)(=O)c4ccc(NCC5CCOCC5)c([N+](=O)[O-])c4)c(Oc4cnc5[nH]ccc5c4)c3)CC2)=C(c2ccc(Cl)cc2)C1 [Venetoclax] + CC(=O)Nc1cccc(-n2c(=O)n(C3CC3)c(=O)c3c(Nc4ccc(I)cc4F)n(C)c(=O)c(C)c32)c1 [Trametinib] (partner 0.02 µM)
A digest of the protocol:
(§2)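 Lung cancer cell lines were pin-tool dosed in 1536-well plates on the day after seeding, with either a lone drug or a fixed anchor-drug dose plus five library-drug doses (not always all listed) in √10 steps. Nuclei were counted on 4× images after 5 days. Relative viability is the ratio of treated-well to vehicle-well nuclei counts, with each value a median of duplicate plates.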

Compound in the assay “Venetoclax + Foretinib”: CC1(C)CCC(CN2CCN(c3ccc(C(=O)NS(=O)(=O)c4ccc(NCC5CCOCC5)c([N+](=O)[O-])c4)c(Oc4cnc5[nH]ccc5c4)c3)CC2)=C(c2ccc(Cl)cc2)C1 [Venetoclax] + COc1cc2c(Oc3ccc(NC(=O)C4(C(=O)Nc5ccc(F)cc5)CC4)cc3F)ccnc2cc1OCCCN1CCOCC1 [Foretinib] (partner 0.25 µM)
The method in brief:
as §2

UMC-11: the relative viability with Venetoclax (0.01 µM) came out at 0.958; with Venetoclax (0.03162 µM) it was 1; with Venetoclax (0.1 µM) it was 0.901; with Venetoclax (0.3162 µM) it was 0.944; in the assay with Venetoclax (1 µM), 0.927; with Selumetinib (0.02 µM) it was 0.936. Moreover, the relative viability with Selumetinib (0.06325 µM) is 0.909; with Selumetinib (0.2 µM), 1.01; with Selumetinib (0.6325 µM) it was 1.04; with Venetoclax + Trametinib (first compound 0.01 µM), 0.674; with Venetoclax + Trametinib (first compound 0.03162 µM), 0.74; in the assay with Venetoclax + Trametinib (first compound 0.1 µM), 0.713. The relative viability was 0.664 with Venetoclax + Trametinib (first compound 0.3162 µM); 0.749 with Venetoclax + Trametinib (first compound 1 µM); 1.08 with Venetoclax + Foretinib (first compound 0.01 µM); 1.05 with Venetoclax + Foretinib (first compound 0.03162 µM); 1.01 in the assay with Venetoclax + Foretinib (first compound 0.1 µM); 0.961 in the assay with Venetoclax + Foretinib (first compound 0.3162 µM). In the assay with Venetoclax + Foretinib (first compound 1 µM), the relative viability came out at 0.913.

The record behind these values is the supplement of paper PMC10307832.
